Reference: patent US9121801B2, “Methods and devices for cellular analysis” (BioMarker Strategies, LLC, priority 2007, dated 2015)
Like-named read-outs stand apart in the source and are kept apart here.

Assays:
FOS expression = settings: 14 days treatment, cited from earlier work
FOS mRNA [1] = settings: in culture; susceptible cell lines A431, CAL27, and HN11; cited from earlier work
FOS mRNA [2] = assay: FOS mRNA induction by quantitative RT-PCR in MCF-7 cells; format: cell-based, human; settings: 100 ng/ml of EGF ligand, incubation 0-45 minutes
Method: A functional measurement of cellular activation includes FOS mRNA induction determined by quantitative RT-PCR. FOS is an early response gene associated with the EGFR pathway. In an experiment, MCF-7 cells were grown in normal growth conditions in 6 well plates to 80% confluency. Cells were gently scraped and exposed to increasing shear forces (0-800 dyne/cm^2 through the Harvard Pipetter) in addition to increasing incubation times (0-45 minutes) in the presence or absence of 100 ng/ml of EGF ligand (Sigma) prior to RNA extraction. FOS mRNA induction peaks at 30-45 minutes and returns to basal levels in approximately 60 minutes. FOS induction is also stimulated as a result of incubation with EGF ligand. […] See FIGS. 17 and 18 for a graphical depiction of the results obtained.

[3] = EGFR-sensitive A431, CAL27, and HN11 xenograft tumors, gefitinib (A431), erlotinib (CAL27, HN11)
[4] = resistant strains, xenografts, gefitinib (HuCCT1), erlotinib (Hep2)

| Molecule | increase in FOS expression in vivo (FOS expression; [3]) | increase in FOS expression in vivo (FOS expression; [4]) | FOS mRNA levels (FOS mRNA [1]) | FOS induction (FOS mRNA [2]) |
| --- | --- | --- | --- | --- |
| COc1cc2ncnc(Nc3ccc(F)c(Cl)c3)c2cc1OCCCN1CCOCC1 [gefitinib] | abrogate the increase in FOS expression | not in resistant strains | decrease FOS mRNA levels | – |
| C#Cc1cccc(Nc2ncnc3cc(OCCOC)c(OCCOC)cc23)c1 [erlotinib] | abrogate the increase in FOS expression | not in resistant strains | decrease FOS mRNA levels | – |
| EGF ligand: growth factor, tumor-cell stimulatory ligand (Sigma) (NSDSECPLSHDGYCLHDGVCMYIEALDKYACNCVVGYIGERCQYRDLKWWELR; Epidermal growth factor; UniProt P01133 971-1023, looked up) | – | – | – | stimulated |
